Source: paper PMC9585577, “Oxyresveratrol and Gnetol Glucuronide Metabolites: Chemical Production, Structural Identification, Metabolism by Human and Rat Liver Fractions, and In Vitro Anti-inflammatory Properties” (Journal of Agricultural and Food Chemistry, 2022)

What was measured:
BV-2 microglial cells = test system: BV-2 microglial cells; parameters: method as in PMID 23807809; details: 5 and 10 μM, BV-2 microglial cells ref 36; cited from earlier work
[1] = test system: IL-1β production in LPS-stimulated RAW 264.7 cells; test: IL-1β production (ELISA) in LPS-stimulated macrophages; type: cell-based, murine; details: t-GN 10 and 50 μM, its glucuronides 50 and 200 μM, 24 h
Method: (§1) RAW 264.7 cells were cultured in DMEM containing 10% FBS and maintained in a humidified incubator set at 37 °C with 5% CO2. For all following assays, cells were subcultured at a density of 40 000 cells per well in 96 well culture plates with 200 μL of the above-described culture medium. After 24 h, cells were incubated with ORV, GN, and their glucuronide metabolites (5–200 μM) in RPMI medium supplemented with glutamine (4 mM) in the presence or absence of LPS (0.1 μg/mL) (200 μL final volume per well). For MTT, NO, ROS, IL-1β, and TNF-α (n = 4), each experiment was performed in triplicate separately.
(§2) At 24 h after seeding, RAW 264.7 cells were exposed to LPS (0.1 μg/mL) in the absence or presence of ORV, GN (10 and 50 μM), and their metabolites (50 and 200 μM). After 24 h of exposure, IL-1β and TNF-α concentrations were measured in culture media supernatants by ELISA sandwich assay following the instructions of the manufacturer.

[2] = test system: TNF-α production in LPS-stimulated RAW 264.7 cells; test: TNF-α production (ELISA) in LPS-stimulated macrophages; type: cell-based, murine; details: t-GN 10 and 50 μM, its glucuronides 50 and 200 μM, 24 h
Method: as §1, §2

[3] = test system: NO production in LPS-stimulated RAW 264.7 cells; test: NO measurement (Griess) in LPS-stimulated macrophages; type: cell-based, murine; details: between 25 and 50 μM (summary statement)
Method: as §1
After 24 h of treatment of RAW 264.7 cells with ORV, GN, and their glucuronide metabolites, 70 μL of supernatant was mixed with 70 μL of Griess solution. After 15 min in darkness, the absorbance was measured at 550 nm using a microplate reader (FLUOstar Optima, BMG Labtech). A calibration curve of NO2 (0–100 μM) was used for quantification. Data were expressed as NO production (μM) compared to cells treated only with LPS (positive control).

[4] = parameters: method as in PMID 25939395; details: rats, intravenous and oral administration ref 2; cited from earlier work
RAW 264.7 cells = test: MTT cell viability; type: cell-based, murine; details: 24 h, 5–200 μM tested
Method: as §1
The MTT colorimetric assay was performed to assess the cell viability of cells after being treated with ORV, GN, and their glucuronide metabolites. After 24 h of treatment, RAW 264.7 cells were incubated with 0.5 mg/mL MTT during 3 h at 37 °C. The formazan crystals formed were dissolved with 100 μL of dimethyl sulfoxide (DMSO), and the plate was then incubated in the darkness for 30 min. Finally, the absorbance was measured at 595 nm using a microplate reader (FLUOstar Optima, BMG Labtech).

[5] = test system: ROS production in LPS-stimulated RAW 264.7 cells; test: Intracellular ROS measurement (DCFH2-DA) in LPS-stimulated macrophages; type: cell-based, murine
Method: as §1
Generation of intracellular ROS in cells was analyzed using the fluorometric probe DCFH2-DA. After 24 h of treatment with GN, ORV, and their glucuronide metabolites, cells were washed with phosphate-buffered saline (PBS) and then 150 μL of DCFH2-DA (10 μM) was added. After 30 min at 37 °C, the fluorescence intensity was quantified using a microplate reader (FLUOstar Optima, BMG Labtech) with a wavelength of excitation and emission of 485 and 520 nm, respectively. All experiments were performed in darkness. Results were expressed as ROS production (fluorescence intensity expressed as arbitrary units) compared to cells treated only with LPS (positive control).

Which cytotoxic effect (BV-2 microglial cells) does the source give for Oc1cc(O)cc(/C=C/c2c(O)cccc2O)c1 [t-GN, trans-2′,3,5,6′-tetrahydroxystilbene] here?
Its cytotoxic effect is “no cytotoxic effect”.

And the “reduction of IL-1β” value [1]?
Its value is “ineffective”.

What about the “reduction of TNF-α” value [2] of the same compound?
Its value is “ineffective”.

And the “decrease of NO production” value [3]?
Its value is “more than 50%”.

What about the calculated bioavailability [4] of the same compound?
Its calculated bioavailability is 6.6%.

And the “concentration from which toxic (MTT)” value (RAW 264.7 cells)?
The value was ≥ 100 µM.

What about the “counteracting ROS production” value ([5]; GN, concentration not stated (5–50 μM tested), 24 h, LPS) of the same compound?
The value was “more than 55%”.

And the “decrease of ROS production” value ([5]; between 25 and 50 μM (summary statement))?
The value was “more than 50%”.
